According to patent US20240358663A1, “COMPOSITIONS AND METHODS FOR THE TREATMENT OF PULMONARY ARTERIAL HYPERTENSION” (The Regents of the University of Michigan, priority 2016, published 2024):
Entries after “also recorded” stand apart in the source; their conditions may differ.

Tested on: CD39^+/+ and CD39^−/− mice exposed to hypoxia
Test: Ectonucleotidase reconstitution and P2X1 receptor blocking in murine chronic hypoxia model of pulmonary hypertension
Assay type: in vivo, mouse
Settings: for development of pulmonary hypertension (PH): continuous infusion during four weeks of hypoxia, CD39^+/+ and CD39^−/− mice; for pulmonary arterial pressures: continuous administration
Text: Seven-week-old CD39^+/+ and CD39^−/− mice were maintained at 10% oxygen (normobaric) for four weeks using a purpose-built, normobaric hypoxia chamber with automated oxygen-regulating capability. Circulating air was scavenged using charcoal and soda lime (Sigma-Aldrich, St. Louis, MO). Temperature and humidity were monitored, and the latter maintained within normal limits using Dririte (Sigma-Aldrich, St. Louis, MO). Normoxic control mice were maintained in the same room at 21% oxygen, which was verified by a continuous oxygen sensor (BioSpherix, Lacona, NY). All animals were given free access to food and water, and were maintained on a 12-hour dark/light cycle.
Mice were anesthetized using 2% isoflurane. A tracheostomy was performed, and animals were ventilated using 21% or 10% oxygen administered thorough the ventilator circuit. Optimal ventilator settings were confirmed using arterial blood gas measurements. After a median sternotomy was performed, hemodynamic measurements were made using a 1.2F solid state pressure catheter (Scisense Transonic, London, ON) inserted through the right ventricular (RV) free wall into the RV cavity and advanced into the pulmonary artery (PA). Placement was verified using the pressure waveform. Data including the right ventricular systolic pressure (RVSP) and mean PA (mPA) pressures were collected and analyzed using LabScribe2 (iWorx, Dover, NH). Continuous EKG monitoring was performed using the MouseMonitor (Indus Instruments, Webster, TX).
Alzet osmotic pumps (DURECT, Cupertino, CA) were used to deliver either 15 units of
apyrase (A6410, Sigma-Aldrich, St. Louis, MO), 25 mM of NF279 (Tocris Bioscience/Bio-Techne, Minneapolis, MN) or sterile 0.9% sodium chloride over a four-week period at a rate of 0.11 μl/hr.
Based upon findings of increased intravascular ATP and ADP, significant up-regulation of the P2X1 receptor, and severe pulmonary hypertension in hypoxic CD39-mice, two sets of rescue experiments were designed aimed at reversing the PH phenotype. The first rescue experiment involved the reconstitution of intravascular ectonucleotidase activity. Soluble potato tuber apyrase has known ATPase and ADPase activity, and has been used in prior studies involving CD39^−/− mice (ref. 24, 44; incorporated by reference in their entireties). Sequence homology of this apyrase is similar to human and murine CD39 (ref. 19; incorporated by reference in its entirety). […] The second rescue experiment involved the continuous infusion of NF279 (8,8′-[Carbonylbis (imino-4,1-phenylenecarbonylimino-4,1-phenylenecarbonylimino)]bis-1,3,5-naphthalenetrisulfonic acid hexasodium salt):
a sensitive and specific P2X1 antagonist, during four weeks of hypoxia. […] Pulmonary Vessels from Patients with IPAH have Increased P2X1 Receptors

| Compound | development of pulmonary hypertension (PH) (FIG. 5c) | right ventricular systolic pressure (RVSP) (continuous subcutaneous administration during four weeks of hypoxia (10% oxygen), compared to control mice that received continuous saline infusions, FIG. 5c) | pulmonary arterial pressures (hypoxic CD39^−/− mice) | RVSP relative to levels found in normoxic CD39^+/+ mice (hypoxic CD39^−/− mice, four weeks of continuous administration, FIG. 5c) |
| --- | --- | --- | --- | --- |
| apyrase | provided partial protection against the development of pulmonary hypertension | significantly decreased the RVSP | decreased pulmonary arterial pressures in hypoxic CD39-mice to levels found in hypoxic CD39^+/+ controls | did not decrease the RVSP in hypoxic CD39^−/− mice to levels found in normoxic CD39^+/+ mice |
| O=C(Nc1ccc(C(=O)Nc2ccc(C(=O)Nc3ccc(S(=O)(=O)[O-])c4cc(S(=O)(=O)[O-])cc(S(=O)(=O)[O-])c34)cc2)cc1)Nc1ccc(C(=O)Nc2ccc(C(=O)Nc3ccc(S(=O)(=O)[O-])c4cc(S(=O)(=O)[O-])cc(S(=O)(=O)[O-])c34)cc2)cc1.[Na+].[Na+].[Na+].[Na+].[Na+].[Na+] [NF279, 8,8′-[Carbonylbis (imino-4,1-phenylenecarbonylimino-4,1-phenylenecarbonylimino)]bis-1,3,5-naphthalenetrisulfonic acid hexasodium salt, reference compound] | prevented the development of PH in all groups; also recorded: protected both CD39^+/+ and CD39-4-mice from the development of hypoxic pulmonary hypertension |  | lowered pulmonary arterial pressures even further |  |
